Patent US20070149485A1, “SELECTED DOSAGE FOR THE TREATMENT OF CARDIOVASCULAR AND RELATED PATHOLOGIES” (Medicure International, Inc., priority 2005, published 2007)

Columns and labels:
[1] = in water, alcohol, and ether; cited from earlier work
[2] = system: high-risk patients undergoing CABG surgery with cardiopulmonary bypass; test: Intravenous P5P in high-risk patients undergoing CABG surgery (Example 2, protocol of Example 1 repeated); assay type: in vivo, human; details: CK-MB cut-off 100 ng/ml
Procedure: The randomized, double-blind placebo-controlled, dose-ranging, parallel-arm multi-center study on high-risk patients undergoing CABG surgery with cardiopulmonary bypass of Experiment 1 is repeated using a protocol as described in Experiment 1, with the difference that the placebo/drug is administered intravenously, in an intravenous dose pharmacokinetically approximating the dosage given enterally in Experiment 1.
Approximately 3000 high-risk pre-CABG patients are screened and randomized to […], prior to their bypass surgery, as follows. Patients are either placed in a control group (placebo), treated intravenously with 5.00 mg/day of P5P, or treated intravenously with 23.33 mg/day of P5P.
Patients are identified as “high risk” if they had two or more of the following risk factors:
• Age greater than 65 years; • Current smoker; • History of diabetes mellitus requiring treatment other than diet; • Evidence of left ventricular dysfunction or congestive heart failure; • History of a previous non-disabling stroke, transient ischemic attack, or carotid endarterectomy; • Urgent CABG intervention defined as the need to stay in the hospital (although the patient may be operated on within a normal scheduling routine); • History of myocardial infarction that occurred more than 48 hours but less than 6 weeks prior to CABG surgery; • Prior peripheral artery surgery or angioplasty; • Moderate renal dysfunction defined as creatinine>133 μmol/L (1.5 mg/dl), but <250 μmol/L (2.8 mg/dl); and • Presence of at least one asymptomatic carotid artery stenosis (>50%) either in one or two carotid arteries.
The first dose of study medication is administered at 3-10 hours prior to CABG surgery. In the event of surgery delay or rescheduling, a second pre-operative dose of P5P is administered so that all patients receive study medication 3-10 hours before surgery. Treatment continues for 30 days after surgery (post operative day (POD) 30). Patients receive follow-up evaluations up to and including postoperative day on POD 30 and on POD 90.
Patients are measured for combined incidence of cardiovascular death and nonfatal myocardial infarction (MI) up to and including post-operative day 30 (POD 30). Patients are also measured for nonfatal myocardial infarction alone.
All deaths without an identifiable non-cardiovascular cause are considered of cardiovascular origin.
Cerebral infarction (stroke) is defined clinically as any new sudden onset focal neurological deficit lasting at least 24 hours as assessed by a neurologist and after neuroimaging (computed tomography [CT] brain scan or magnetic resonance imaging [MRI]) excludes an intracerebral hemorrhage. […]

Q: What does the source list for Cc1ncc(COP(=O)(O)O)c(C=O)c1O [P5P, 3-hydroxy-2-methyl-5-[(phosphonooxy)methyl]-4-pyridine-carboxaldehyde]?
A: solubility [1]: essentially insoluble; reducing instances of myocardial infarction ([2]; intravenous 5.00 mg/day): highly effective; reducing total incidents (myocardial infarction, cerebral infarction, or death) ([2]; intravenous 5.00 mg/day, better than 23.33 mg/day): highly effective; reducing instances of myocardial infarction ([2]; intravenous 23.33 mg/day): highly effective; reducing total incidents (myocardial infarction, cerebral infarction, or death) ([2]; intravenous 23.33 mg/day): highly effective
